# Measurements published in patent publication US12037415B2, “Peptide and pharmaceutical composition for treating an eye disease comprising the same as an active pharmaceutical ingredient” (YuYu Pharma, Inc., priority 2017, dated 2024).
# Non-standard residues stand in square brackets, D forms with d. Residues, ends and D or L forms follow the SMILES beside them. No end group written: not given here. ξ: configuration not given here. Pro(trans-4-F) = O=C(O)[C@@H]1C[C@@H](F)CN1; Pro(4,4-Me2) = CC1(C)CN[C@H](C(=O)O)C1; Pro(4-oxo) = O=C1CN[C@H](C(=O)O)C1; Hyp = O=C(O)[C@@H]1C[C@@H](O)CN1; Thr(3ξ) = CC(O)[C@H](N)C(=O)O
# How the values were obtained:
# [1] = Stability in aqueous solution, amount of related substances under long-term storage conditions; type: physicochemical; settings: glass vial, 25° C., 75% RH
# Protocol: In order to confirm the stability of each test substance in an aqueous solution, […] of each sample was dissolved in 1 ml of water to a concentration of 1 mg/ml, which was then charged to a glass vial, plugged with a rubber cap, sealed with an aluminum cap, and stored under long-term storage conditions (25° C., 75% RH). The stability of the test substance was evaluated by measuring the amount of related substances at the time of one week, two weeks, four weeks, eight weeks, and twelve weeks under the long-term storage conditions.
# [2] = system: cornea of rats with dry eye syndrome (ELGE); test: Corneal permeability of fluorescent dye (corneal damage) in rats with ELGE-induced dry eye syndrome; type: in vivo, rat; settings: 0.3% solution, day 14 after the administration
# Source text: In order to evaluate the eye protection effect on dry eye syndrome by YDE-001 to YDE-028 prepared in Working Example 1, a total of 320 Sprague-Dawley-type male rats (OrientBio, Seungnam, Korea) were adapted for 7 days. Thereafter, dry eye syndrome was induced in 264 test rats through extraorbital lacrimal gland excision (hereinafter, ELGE). 8 test rats without the eye abnormality were subjected to a sham operation as a control group.
# The rats were systemically anesthetized by inhaling a mixed gas of 2% to 3% of isoflurane (Hana Pharm. Co., Hwasung, Korea), 70% of N2O, and 28.6% of O2 using a rodent anesthesia machine (Surgivet, Waukesha, Wis., USA) and a ventilator (Model 687, Harvard Apparatus, Cambridge, UK). Thereafter, the extraorbital lacrimal gland located in the subdermal area above the masseter muscle and under the optic nerve was excised through a transverse incision in a size of 10 mm on the anterior part of the left ear tragus. The skin was sutured by a general method. […] After 6 days following the ELGE operation, confirmation was performed through the Schirmer test by measuring the amount of tear secretion whether dry eye syndrome had been induced. Meanwhile, each rat of the control group with the sham operation was checked for the presence and location of the extraorbital lacrimal gland through a skin incision, and the skin was then sutured without the excision thereof (FIG. 134).
# In addition, in order to evaluate the eye protection effect on dry eye syndrome by YDE-029 to YDE-043 prepared in Working Example 1, a total of 200 Sprague-Dawley-type male rats (OrientBio, Seungnam, Korea) were adapted for 7 days. Dry eye syndrome was induced in 165 test rats through the ELGE. 8 test rats without the eye abnormality were subjected to the sham operation as a control group. The ELGE was carried out as described above.
# (§1) For YDE-001 to YDE-028, YY-102 and the 28 YDE-series were each dissolved in physiological saline at a concentration of 3 mg/ml and administered at a dose of 5 μl/eye at 9:30 am and 3:30 pm daily for 14 days after 7 days from the ELGE operation for a total of 28 times. The DS solution was dissolved in physiological saline at a concentration of 30 mg/ml and administered at a dose of 5 μl/eye twice a day for 14 days after 7 days from the ELGE operation for a total of 28 times. For the sham control and the ELGE control groups, the same stimulation as the administration was applied. In order to prevent excessive eye dryness, the same volume of physiological saline was applied in the same manner in place of the test substances.
# as §1, with “Further, For YDE-029” for “For YDE-001”, “Further, For YDE-029 to YDE-043,” for “For YDE-001 to YDE-028,”, “YDE-029 to YDE-043, YY-102 and” for “YDE-001 to YDE-028, YY-102 and”, “and the 15 YDE-series were” for “and the 28 YDE-series were”, “the test substances (FIG. 137).” for “the test substances.”
# After YDE-001 to YDE-028 were each administered to the eyes […], the changes in the corneal permeability were checked.
# In order to measure the corneal permeability, Zolethyl 50™ (Virbac Lab., Carros, France), an animal anesthetic, was intraperitoneally injected at a dose of 25 mg/kg. Thereafter, saline containing a 1% (v/v) fluorescent solution (fluorescein sodium salt, Tokyo Kasei Kogyo Co., Tokyo, Japan) was applied to the eyes at a dose of 5 μl/eye. The eyes thus treated were closed and fixed with a tape. After 1 hour, the remaining fluorescent solution was removed using a cotton swab (FIG. 142). […]
# [3] = study of YDE-001 to YDE-028 (Table 16)
# [4] = study of YDE-029 to YDE-043 (Table 17)
Compound,Amount of related substances (%; after 12 weeks) [1],"Permeability of fluorescent dye (%) [2, 3]","Permeability of fluorescent dye (%) [2, 4]"
"CC(C)C[C@H](NC(=O)CNC(=O)[C@H](CCC(=O)O)NC(=O)[C@H](CCC(N)=O)NC(=O)CNC(=O)[C@@H]1C[C@@H](O)CN1)C(=O)N[C@@H](C)C(=O)NCC(=O)N1CCC[C@H]1C(=O)N[C@@H](CCCCN)C(=O)O [YDE-001, HyP-Gly-Gln-Glu-Gly-Leu-Ala-Gly-Pro-Lys] (H-[Hyp]GQEGLAGPK-OH)",3.92%,25.49 ± 11.62%,–
"CC(C)C[C@H](NC(=O)CNC(=O)[C@H](CC(N)=O)NC(=O)[C@H](CCC(N)=O)NC(=O)CNC(=O)[C@@H]1C[C@@H](O)CN1)C(=O)N[C@@H](C)C(=O)NCC(=O)N1CCC[C@H]1C(=O)N[C@@H](CCCCN)C(=O)O [YDE-002, HyP-Gly-Gln-Asn-Gly-Leu-Ala-Gly-Pro-Lys] (H-[Hyp]GQNGLAGPK-OH)",4.93%,38.26 ± 11.25%,–
"CC(C)C[C@H](NC(=O)CNC(=O)[C@H](CCC(N)=O)NC(=O)[C@H](CCC(N)=O)NC(=O)CNC(=O)[C@@H]1C[C@@H](O)CN1)C(=O)N[C@@H](C)C(=O)NCC(=O)N1CCC[C@H]1C(=O)N[C@@H](CCCCN)C(=O)O [YDE-003, HyP-Gly-Gln-Gln-Gly-Leu-Ala-Gly-Pro-Lys] (H-[Hyp]GQQGLAGPK-OH)",6.86%,40.45 ± 6.46%,–
"CC(C)C[C@H](NC(=O)CNC(=O)[C@H](Cc1cnc[nH]1)NC(=O)[C@H](CCC(N)=O)NC(=O)CNC(=O)[C@@H]1C[C@@H](O)CN1)C(=O)N[C@@H](C)C(=O)NCC(=O)N1CCC[C@H]1C(=O)N[C@@H](CCCCN)C(=O)O [YDE-004, HyP-Gly-Gln-His-Gly-Leu-Ala-Gly-Pro-Lys] (H-[Hyp]GQHGLAGPK-OH)",2.11%,35.05 ± 11.74%,–
"CC(C)C[C@H](NC(=O)CNC(=O)[C@H](CC(C)C)NC(=O)[C@H](CCC(N)=O)NC(=O)CNC(=O)[C@@H]1C[C@@H](O)CN1)C(=O)N[C@@H](C)C(=O)NCC(=O)N1CCC[C@H]1C(=O)N[C@@H](CCC(=O)O)C(=O)O [YDE-031, HyP-Gly-Gln-Leu-Gly-Leu-Ala-Gly-Pro-Glu] (H-[Hyp]GQLGLAGPE-OH)",–,–,33.35 ± 11.01%
"CC(C)C[C@H](NC(=O)CNC(=O)[C@H](CC(C)C)NC(=O)[C@H](CCC(N)=O)NC(=O)CNC(=O)[C@@H]1CC(=O)CN1)C(=O)N[C@@H](C)C(=O)NCC(=O)N1CCC[C@H]1C(=O)N[C@@H](CCCCN)C(=O)O [YDE-035, (4-oxo)Pro-Gly-Gln-Leu-Gly-Leu-Ala-Gly-Pro-Lys] (H-[Pro(4-oxo)]GQLGLAGPK-OH)",–,–,27.62 ± 6.51%
"CC(C)C[C@H](NC(=O)CNC(=O)[C@H](CC(C)C)NC(=O)[C@H](CCC(N)=O)NC(=O)CNC(=O)[C@@H]1C[C@@H](F)CN1)C(=O)N[C@@H](C)C(=O)NCC(=O)N1CCC[C@H]1C(=O)N[C@@H](CCCCN)C(=O)O [YDE-039, (4-Fluoro)Pro-Gly-Gln-Leu-Gly-Leu-Ala-Gly-Pro-Lys] (H-[Pro(trans-4-F)]GQLGLAGPK-OH)",–,–,29.94 ± 11.40%
"CC(C)C[C@H](NC(=O)CNC(=O)[C@H](CC(C)C)NC(=O)[C@H](CCC(N)=O)NC(=O)CNC(=O)[C@@H]1CC(C)(C)CN1)C(=O)N[C@@H](C)C(=O)NCC(=O)N1CCC[C@H]1C(=O)N[C@@H](CCCCN)C(=O)O [YDE-040, (4-Dimethyl)Pro-Gly-Gln-Leu-Gly-Leu-Ala-Gly-Pro-Lys] (H-[Pro(4,4-Me2)]GQLGLAGPK-OH)",–,–,18.33 ± 9.41%
"CC(C)C[C@H](NC(=O)CNC(=O)[C@H](CC(C)C)NC(=O)[C@H](CCC(N)=O)NC(=O)CNC(=O)[C@@H]1C[C@@H](O)CN1)C(=O)O [YDE-042, HyP-Gly-Gln-Leu-Gly-Leu] (H-[Hyp]GQLGL-OH)",–,–,20.72 ± 11.37%
"CC(C)C[C@H](NC(=O)[C@H](CCC(N)=O)NC(=O)CNC(=O)[C@@H]1C[C@@H](O)CN1)C(=O)NCC(=O)O [YDE-043, HyP-Gly-Gln-Leu-Gly] (H-[Hyp]GQLG-OH)",–,–,19.04 ± 7.36%
"PGQLGLAGPK [YDE-037, Pro-Gly-Gln-Leu-Gly-Leu-Ala-Gly-Pro-Lys]",–,–,36.30 ± 9.75%

# Continued, in another order:
Amount of related substances (%; after 12 weeks) [1],Compound,"Permeability of fluorescent dye (%) [2, 3]","Permeability of fluorescent dye (%) [2, 4]"
2.97%,"CC(C)C[C@H](NC(=O)CNC(=O)[C@H](CCCCN)NC(=O)[C@H](CCC(N)=O)NC(=O)CNC(=O)[C@@H]1C[C@@H](O)CN1)C(=O)N[C@@H](C)C(=O)NCC(=O)N1CCC[C@H]1C(=O)N[C@@H](CCCCN)C(=O)O [YDE-005, HyP-Gly-Gln-Lys-Gly-Leu-Ala-Gly-Pro-Lys] (H-[Hyp]GQKGLAGPK-OH)",37.98 ± 11.53%,–
3.67%,"CC(C)C[C@H](NC(=O)CNC(=O)[C@H](CO)NC(=O)[C@H](CCC(N)=O)NC(=O)CNC(=O)[C@@H]1C[C@@H](O)CN1)C(=O)N[C@@H](C)C(=O)NCC(=O)N1CCC[C@H]1C(=O)N[C@@H](CCCCN)C(=O)O [YDE-006, HyP-Gly-Gln-Ser-Gly-Leu-Ala-Gly-Pro-Lys] (H-[Hyp]GQSGLAGPK-OH)",33.23 ± 13.26%,–
3.76%,"CC(C)C[C@H](NC(=O)CNC(=O)[C@@H](NC(=O)[C@H](CCC(N)=O)NC(=O)CNC(=O)[C@@H]1C[C@@H](O)CN1)C(C)O)C(=O)N[C@@H](C)C(=O)NCC(=O)N1CCC[C@H]1C(=O)N[C@@H](CCCCN)C(=O)O (stereo partly drawn) [YDE-007, HyP-Gly-Gln-Thr-Gly-Leu-Ala-Gly-Pro-Lys] (H-[Hyp]GQ[Thr(3ξ)]GLAGPK-OH)",32.79 ± 10.77%,–
4.42%,"CC(C)C[C@H](NC(=O)CNC(=O)[C@H](C)NC(=O)[C@H](CCC(N)=O)NC(=O)CNC(=O)[C@@H]1C[C@@H](O)CN1)C(=O)N[C@@H](C)C(=O)NCC(=O)N1CCC[C@H]1C(=O)N[C@@H](CCCCN)C(=O)O [YDE-008, HyP-Gly-Gln-Ala-Gly-Leu-Ala-Gly-Pro-Lys] (H-[Hyp]GQAGLAGPK-OH)",20.32 ± 11.87%,–
3.83%,"CC(C)C[C@H](NC(=O)CNC(=O)[C@H](CC(C)C)NC(=O)[C@H](CCC(N)=O)NC(=O)CNC(=O)[C@@H]1C[C@@H](O)CN1)C(=O)N[C@@H](C)C(=O)NCC(=O)N1CCC[C@H]1C(=O)N[C@@H](CCCCN)C(=O)O [YDE-011, HyP-Gly-Gln-Leu-Gly-Leu-Ala-Gly-Pro-Lys] (H-[Hyp]GQLGLAGPK-OH)",18.11 ± 11.61%,–
3.57%,"CC(C)C[C@H](NC(=O)CNC(=O)[C@H](Cc1ccccc1)NC(=O)[C@H](CCC(N)=O)NC(=O)CNC(=O)[C@@H]1C[C@@H](O)CN1)C(=O)N[C@@H](C)C(=O)NCC(=O)N1CCC[C@H]1C(=O)N[C@@H](CCCCN)C(=O)O [YDE-012, HyP-Gly-Gln-Phe-Gly-Leu-Ala-Gly-Pro-Lys] (H-[Hyp]GQFGLAGPK-OH)",31.01 ± 11.38%,–
5.92%,"CC(C)C[C@H](NC(=O)CNC(=O)[C@H](Cc1ccc(O)cc1)NC(=O)[C@H](CCC(N)=O)NC(=O)CNC(=O)[C@@H]1C[C@@H](O)CN1)C(=O)N[C@@H](C)C(=O)NCC(=O)N1CCC[C@H]1C(=O)N[C@@H](CCCCN)C(=O)O [YDE-013, HyP-Gly-Gln-Tyr-Gly-Leu-Ala-Gly-Pro-Lys] (H-[Hyp]GQYGLAGPK-OH)",32.24 ± 7.84%,–
